Source: patent US8741965B2, “Method of administering a pheromone composition to an animal to modify the animals behavior over an extended period of time” (Sergeant's Pet Care Products, Inc., priority 2011, dated 2014)
Entries after “also recorded” stand apart in the source; their conditions may differ. Marks after values point to notes of the source that are not given here.

What was measured:
Type in all cases: in vivo, dog
nervous dogs (dogs 5-8) = assay: Example 11 Study 4: room diffusers over 24 hours; conditions: for heart rate and surface temperature of individual dogs: compared with Placebo, FIGS. 17A and 17B
Description: (§1) Eight dogs were obtained from a local contract research facility and assessment was made as to general dog health, behavior and heart rate. The dogs were estimated to be 2 to 7 years of age, mixed breed, and weighed averagely 8.1±0.18 kg at the start of the studies. […] Upon arrival each dog was bathed using shampoo containing flea and tick medicine (Hartz Mountain Corp. Secaucus, N.J. USA), and their body hair was shaved. Each dog was kept in a single room, which had 100% fresh air intake and exhaust. The dogs were fed twice (am and pm) per day ad libitum. At that time, the room was cleaned and the dogs obtained extra exercise. Water was available ad libitum.
(§2) Dog behavior was captured on video media at a sampling rate of 30 frames per second. Video records were reviewed in real time (with tape playing 30 frames per second). A scan sampling method was used to record dog behaviors each minute or each 5 minutes depending on the particular study. If the sample period was 120 minutes with four periods (0-30=0, 30-60=30, 60-90=60, and 90-120-90 min), then a scan sample was recorded each 1 minute. If the sample period was 24 hours, then the scan sample was collected each 5 minutes and summarized each hour. For example, pacing is when a dog walks in a stereotyped manner for minutes to hours. Because it was not easy to distinguish walking from pacing, the behaviors were merged. In addition, the video records could not clearly distinguish lying down and awake versus lying down and sleeping, therefore there was no separate description for these two behaviors.
(§3) Heart rate during the studies was measured by the use of a non-invasive telemetry system (Data Science International, St. Paul, Minn., USA). Leads were placed in contact with the dogs' shaved skin. Sensors measured heart rate, surface temperature and general activity. Data were transmitted to a receiving computer in another room. The sampling rate varied with the study, but was 5 seconds for the first two hours after treatments and then each 1 minute for 24 hours (depending on the particular study). For surface temperature measurements of the dog subjects, a thermistor was located against the skin of each dog. It recorded the surface temperature to the neared 0.1° C. on the same interval as the heart rate data.
(§4) Behavior and physiological data (heart rate and surface temperature) were analyzed by least squares analysis of variance using SAS (2011) software and the general linear models procedures. The experimental design of each study was a specialized randomized complete block in a Latin square design with data collected as a split plot over time. Dogs represented the blocks. Each dog received each treatment randomly in successive days or weeks. The statistical model included effects of treatment (TRT), dog, dog by treatment (TRT*DOG; error term used to assess treatment and dog effects), time (HR), treatment by time (TRT*HR), and residual error (SE; used to test remaining effects). Behavior data were collected and analyzed as counts per time period, but for clarity of presentation, the data are reported as percentage of time dogs engaged in each behavior.
In Study 4, putative pheromones were examined as room diffusers. Room diffusers were obtained and different liquid odors were applied over a 24 hour period. In contrast to Studies 1, 2, and 3, heart rates and behavior data were obtained over 24 hours (rather than just 2 hours after treatment application as in the other studies) and a baseline day was included in the dataset. Similar to Studies 1, 2, and 3, each dog experienced each treatment on different days in random order. The following treatment groups were evaluated: Baseline, Placebo Formula H Pheromone (SERG), DAP room diffuser (DAPRD; as available commercially) and the Rabbit Pheromone in diffuser form prepared in accordance with Example 4 (RPRD, 1 μg/mL). […]

nervous dogs [1] = assay: Example 11 Study 1: baseline behavior and heart rate after collar or spray; conditions: for pacing-walking behavior of individual dogs: Study 1, FIG. 3A; for sitting behavior of individual dogs: FIG. 3C; for heart rate of individual dogs: Study 1, dogs 1-4, FIG. 6; for overall dog heart rate and its decline: dogs 1-4, two hours after collar or spray, FIGS. 4, 5
Description: as §1, §2, §3, §4
In Study 1, baseline heart rate data were collected while the dogs each experienced 4 different treatments—a placebo collar (PLACEBO), Pheromone “H” Collar (SERG), Dog Appeasing Pheromone in collar form (DAPC) and the Rabbit Pheromone (RP; 1 μg/mL) formulated into a spray in accordance with Example 8. Each of the four treatments was given to each dog in a random order, with the treatment changing each week. Baseline heart rate and behavior data were collected for 30 minutes before each treatment application (see Table 8) and 2 hours after (see Table 9) (expressed in % of time).

nervous dogs [2] = assay: Example 11 Study 2: behavior and heart rate after collar or spray with startle
Description: as §1, §2, §3, §4
In Study 2, the dogs were exposed to the same treatments as in Study 1, except a startle was also applied. An aerosol can (Pet Corrector, The Company of Animals, Surrey, UK) was used to make a loud hissing noise and a spray of liquid as a startle. The protocol involved spraying the Rabbit Pheromone at 0, 30, 60, and 90 min (RP; 1 μg/mL) or collar application (PLACEBO, SERG, or DAPC) at time zero. Each dog was startled at 45 minutes. Data were recorded for 120 minutes. Data reporting periods were: 0 (0-30 min), 30 (30-60 min), and 90 (90-120 min).

[3] = 120 minutes after treatment, no startle, SERG, DAPC collars, RP spray 1 μg/mL
[4] = 120 minutes after startle, SERG, DAPC collars, RP spray 1 μg/mL

**Q.** Which results are given for `C/C=C(\C)C=O` [RP, 2-methylbut-2-enal]?
**A.** TEMP (surface temperature) (nervous dogs (dogs 5-8); after room diffuser treatment, dogs 5-8, Placebo 30.9): 33.8; HR (overall heart rate) (nervous dogs (dogs 5-8); after room diffuser treatment, dogs 5-8, Placebo 79.6): 108.4; Defecate (nervous dogs (dogs 5-8); room diffuser, 24 hours): 0.18% of time; Drink (nervous dogs (dogs 5-8); room diffuser, 24 hours): 0.18% of time; Eat (nervous dogs (dogs 5-8); room diffuser, 24 hours): 0.26% of time; Lick self (nervous dogs (dogs 5-8); room diffuser, 24 hours): 0.09% of time; Lying down (nervous dogs (dogs 5-8); room diffuser, 24 hours): 87.0% of time; Pace- (nervous dogs (dogs 5-8); room diffuser, 24 hours): 5.67% of time; Sitting (nervous dogs (dogs 5-8); room diffuser, 24 hours): 5.00% of time; Standing (nervous dogs (dogs 5-8); room diffuser, 24 hours): 1.42% of time; Urinate (nervous dogs (dogs 5-8); room diffuser, 24 hours): 0.26% of time; drinking behavior of individual dogs (nervous dogs (dogs 5-8); room diffuser, FIG. 16): dog 7 showed increased drinking; heart rate and surface temperature of individual dogs (nervous dogs (dogs 5-8); room diffuser): increased the surface temperature of dog 7 compared to placebo; heart rate and surface temperature of individual dogs (nervous dogs (dogs 5-8); room diffuser, listed as rabbit pheromone): Dog 5 had elevated HR and surface temperature; also recorded: Dog 6 had increased heart rate and decreased surface temperature; heart rate of dog 5 (nervous dogs (dogs 5-8); room diffuser, increased to): about 200 bpm; sitting over time versus other treatments (nervous dogs [1]; 2-hour period after collar or spray, FIG. 3D): In the 60 minute period after treatment with rabbit pheromone, dogs also sat more than with the other treatments; average time dogs sat (nervous dogs [1]; 30 minute period after spray, FIG. 3D): ~50 % of the time; Defecate (nervous dogs [1]; [3]): 0 % of time; Drink (nervous dogs [1]; [3]): 0.0 % of time; Eat (nervous dogs [1]; [3]): 0.0 % of time; Lick self (nervous dogs [1]; [3]): 0 % of time; Lying down (nervous dogs [1]; [3]): 58.5 % of time; Pace-walk (nervous dogs [1]; [3]): 7.6 % of time; Sitting (nervous dogs [1]; [3]): 93.1 % of time; Standing (nervous dogs [1]; [3]): 3.1 % of time; Urinate (nervous dogs [1]; [3]): 0 % of time; pacing-walking behavior of individual dogs (nervous dogs [1]; listed as RP spray): dog 7 showed reduced pacing-walking; also recorded: increased pacing-walking of dog 1 compared with the DAP collar; pacing-walking behavior of individual dogs (nervous dogs [1]; listed as rabbit INTEROMONE® spray): Dog 3 increased pacing with Serg, but reduced its pacing with DAP collar and rabbit INTEROMONE® spray; also recorded: Dog 7's pacing was reduced by DAP collar and reduced even more by rabbit INTEROMONE® spray; lying down behavior / activity of individual dogs (nervous dogs [1]; Study 1, compared with Placebo, FIG. 3B): For dog 2, both SERG and RP reduced lying down behavior significantly; also recorded: For dog 8, only RP increased dog activity and reduced lying down; sitting behavior of individual dogs (nervous dogs [1]; Study 1, compared with Placebo, listed as RP spray): increased dog sitting in dogs 2 and 8; sitting behavior of individual dogs (nervous dogs [1]; Study 1, compared with Placebo, listed as rabbit pheromone): dogs 2 and 8 showed increased sitting; heart rate of individual dogs (nervous dogs [1]): decreased the heart rates of dogs 3 and 4 compared to other treatments; heart rate of individual dogs (nervous dogs [1]; listed as Rabbit pheromone): decreased heart rate in dog 3; heart rate of individual dogs (nervous dogs [1]; listed as rabbit pheromone spray): Dog 3 had decreased heart rate; speed of calming (nervous dogs [1]; Study 1, spray versus collar): calms dogs faster than treatment with DAP collar; heart rate decline (slope of regression equation) (nervous dogs [1]; dogs 1-4, FIG. 5, placebo 6 bpm/h): 24.5 bpm/h; overall dog heart rate and its decline (nervous dogs [1]): had the greatest effect in decreasing dog heart rate; overall dog heart rate and its decline (nervous dogs [1]; listed as rabbit pheromone): most significantly (P<0.05) reduced overall dog heart rate; also recorded: greater decline in heart rate than Placebo; Defecate (nervous dogs [2]; [4]): 0.0 % of time; Drink (nervous dogs [2]; [4]): 3.7 % of time; Eat (nervous dogs [2]; [4]): 1.2 % of time; Lick self (nervous dogs [2]; [4]): 0.0^b % of time; Lying down (nervous dogs [2]; [4]): 46.4 % of time; Pace-walk (nervous dogs [2]; [4]): 19.4 % of time; Sitting (nervous dogs [2]; [4]): 53.8 % of time; Standing (nervous dogs [2]; [4]): 23.4^b % of time; Urinate (nervous dogs [2]; [4]): 0.0 % of time; lying down and sitting behavior of individual dogs after startle (nervous dogs [2]; FIGS. 8 and 9): dogs 2, 3, 6 and 8 spent less time lying down but more time sitting after startle; standing behavior after startle (nervous dogs [2]; in comparison to Placebo or SERG collars): increased standing behavior among RP-sprayed dogs
